Experimental data published in patent US5698522A, “6-position modified decapeptide LHRH antagonists” (Abbott Laboratories, priority 1995, dated 1997).
*1 amine or outer side, *2 acyl side, *3 side chain or, on linkers, in order; H or OH if unused. Where a SMILES comes first, the peptide text is derived from it. Side-chain parts run from the residue outwards. [ ]: non-standard residue; d: D form. The star is where a group is joined. X3 = O=Cn1cc(C[C@@H](NC(=O)C2=C[C@@H](O)[C@@H](O)[C@H](O)C2)C(=O)*)c2ccccc21; NMePhe(4-NH(5-NH2-Trz-3-yl)) = CN[C@@H](Cc1ccc(Nc2n[nH]c(N)n2)cc1)C(=O)O; Biotin = O=C1N[C@H]2[C@H](CS[C@H]2CCCCC(=O)*)N1; dPhe(4-Cl) = N[C@H](Cc1ccc(Cl)cc1)C(=O)O; d2Nal = N[C@H](Cc1ccc2ccccc2c1)C(=O)O; Acetyl(3-pyridyl) = O=C(Cc1cccnc1)*; Lys(iPr) = CC(C)NCCCC[C@H](N)C(=O)O; NMeY = CN[C@@H](Cc1ccc(O)cc1)C(=O)O; Ethylenediamine = C(CN[*:2])N[*:1]; d3Pal = N[C@H](Cc1cccnc1)C(=O)O; Nicotinoyl = O=C(c1cccnc1)*; X4 = Nc1nc(NCC(=O)*)n[nH]1; CO = O=C([*:1])[*:2]; X2 = O=C(c1ccoc1)*; azaGly = NNC(=O)O; Sar = CNCC(=O)O

These compounds were tested against T1, LHRH receptor (Rattus norvegicus, UniProt P30969) (assay: in vitro LHRH antagonist potency (pA2) against the agonist leuprolide). Details: negative logarithm of the antagonist concentration which shifts the response curve produced by the agonist leuprolide to two-fold higher concentration.
T1 construct: endogenous in cells
T1 sequence (P30969 1-327): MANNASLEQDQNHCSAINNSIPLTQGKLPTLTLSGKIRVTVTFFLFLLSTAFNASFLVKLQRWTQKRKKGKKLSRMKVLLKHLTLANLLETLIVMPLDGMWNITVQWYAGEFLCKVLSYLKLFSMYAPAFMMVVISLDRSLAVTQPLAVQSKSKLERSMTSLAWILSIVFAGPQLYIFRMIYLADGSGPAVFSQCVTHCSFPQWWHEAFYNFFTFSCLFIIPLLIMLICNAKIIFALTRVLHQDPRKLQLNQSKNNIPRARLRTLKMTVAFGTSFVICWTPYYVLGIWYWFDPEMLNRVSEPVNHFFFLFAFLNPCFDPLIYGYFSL
Format: cell-based
Outline: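 Functional antagonism against the agonist leuprolide. pA2 is the negative log of antagonist concentration that shifts the leuprolide response curve to twofold higher concentration.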

Row | Compound | Kb
1 | CC(=O)N[C@H](Cc1ccc2ccccc2c1)C(=O)N[C@H](Cc1ccc(Cl)cc1)C(=O)N[C@H](Cc1cccnc1)C(=O)N[C@@H](CO)C(=O)N(C)[C@@H](Cc1ccc(O)cc1)C(=O)N[C@H](CCCCNC(=O)NNC(=O)c1cccnc1)C(=O)N[C@@H](CC(C)C)C(=O)N[C@@H](CCCCNC(C)C)C(=O)N1CCC[C@H]1C(=O)N(C)CC(N)=O [Example 60, NAc-D2Nal^1 -D4ClPhe^2 -D3Pal^3 -Ser^4 -NMeTyr^5 -DLys(N-epsilon-Azagly-Nicotinyl)^6 -Leu^7 -Lys(N-epsilon-Isopropyl)^8 -Pro^9 -Sar^10 NH2] (Ac-[d2Nal][dPhe(4-Cl)][d3Pal]S[NMeY][dK]([azaGly-Nicotinoyl])L[Lys(iPr)]P[Sar]-NH2) | 28.2 pM
2 | CC(=O)N[C@H](Cc1ccc2ccccc2c1)C(=O)N[C@H](Cc1ccc(Cl)cc1)C(=O)N[C@H](Cc1cccnc1)C(=O)N[C@@H](CO)C(=O)N(C)[C@@H](Cc1ccc(O)cc1)C(=O)N[C@H](CCCCNC(=O)NCCNC(=O)c1cccnc1)C(=O)N[C@@H](CC(C)C)C(=O)N[C@@H](CCCCNC(C)C)C(=O)N1CCC[C@H]1C(=O)N[C@H](C)C(N)=O [Example 62, NAc-D2Nal^1 -D4ClPhe^2 -D3Pal^3 -Ser^4 -NMeTyr^5 -DLys(N-epsilon-N'-Carbonyl-Diaminoethane-N"-Nicotinyl)^6 -Leu^7 -Lys(N-epsilon-Isopropyl)^8 -Pro^9 -DAla^10 NH2] (Ac-[d2Nal][dPhe(4-Cl)][d3Pal]S[NMeY][dK]([CO-Ethylenediamine-Nicotinoyl])L[Lys(iPr)]P[dA]-NH2) | 26.3 pM
3 | CC(=O)N[C@H](Cc1ccc2ccccc2c1)C(=O)N[C@H](Cc1ccc(Cl)cc1)C(=O)N[C@H](Cc1cccnc1)C(=O)N[C@@H](CO)C(=O)N(C)[C@@H](Cc1ccc(Nc2n[nH]c(N)n2)cc1)C(=O)N[C@H](CCCCNC(=O)CNc1n[nH]c(N)n1)C(=O)N[C@@H](CC(C)C)C(=O)N[C@@H](CCCCNC(C)C)C(=O)N1CCC[C@H]1C(=O)N[C@H](C)C(N)=O [Example 63, NAc-D2Nal^1 -D4ClPhe^2 -D3Pal^3 -Ser^4 -NMePhe(Atz)^5 -DLys(N-epsilon-N'-Gly-Atz)^6 -Leu^7 -Lys(N-epsilon-Isopropyl)^8 -Pro^9 -DAla^10 NH2] (Ac-[d2Nal][dPhe(4-Cl)][d3Pal]S[NMePhe(4-NH(5-NH2-Trz-3-yl))][dK](X4)L[Lys(iPr)]P[dA]-NH2) | 4.47 pM
4 | CC(=O)N[C@H](Cc1ccc2ccccc2c1)C(=O)N[C@H](Cc1ccc(Cl)cc1)C(=O)N[C@H](Cc1cccnc1)C(=O)N[C@@H](CO)C(=O)N(C)[C@@H](Cc1ccc(O)cc1)C(=O)N[C@H](CCCCNC(=O)CNC(=O)CCCC[C@@H]1SC[C@@H]2NC(=O)N[C@@H]21)C(=O)N[C@@H](CC(C)C)C(=O)N[C@@H](CCCCNC(C)C)C(=O)N1CCC[C@H]1C(=O)N[C@H](C)C(N)=O [Example 64, NAc-D2Nal^1 -D4ClPhe^2 -D3Pal^3 -Ser^4 -NMeTyr^5 -DLys(N-epsilon-Gly-Biotinyl)^6 -Leu^7 -Lys(N-epsilon-isopropyl)^8 -Pro^9 -DAla^10 NH2] (Ac-[d2Nal][dPhe(4-Cl)][d3Pal]S[NMeY][dK]([Gly-Biotin])L[Lys(iPr)]P[dA]-NH2) | 11.5 pM
5 | CC(=O)N[C@H](Cc1ccc2ccccc2c1)C(=O)N[C@H](Cc1ccc(Cl)cc1)C(=O)N[C@H](Cc1cccnc1)C(=O)N[C@@H](CO)C(=O)N(C)[C@@H](Cc1ccc(O)cc1)C(=O)N[C@H](CCCCNC(=O)[C@@H](Cc1cn(C=O)c2ccccc12)NC(=O)C1=C[C@@H](O)[C@@H](O)[C@H](O)C1)C(=O)N[C@@H](CC(C)C)C(=O)N[C@@H](CCCNC(=N)N)C(=O)N1CCC[C@H]1C(=O)N[C@H](C)C(N)=O [Example 65a, NAc-D2Nal^1 -D4ClPhe^2 -D3Pal^3 -Ser^4 -NMeTyr^5 -DLys(N-epsilon-DTrp(Formyl)-Shikimyl)^6 -Leu^7 -Arg^8 -Pro^9 -DAla^10 NH2] (Ac-[d2Nal][dPhe(4-Cl)][d3Pal]S[NMeY][dK](X3)LRP[dA]-NH2) | 25.1 pM
6 | CC(=O)N[C@H](Cc1ccc2ccccc2c1)C(=O)N[C@H](Cc1ccc(Cl)cc1)C(=O)N[C@H](Cc1cccnc1)C(=O)N[C@@H](CO)C(=O)N(C)[C@@H](Cc1ccc(O)cc1)C(=O)N[C@H](CCCCNC(=O)[C@@H](CO)NC(=O)c1ccoc1)C(=O)N[C@@H](CC(C)C)C(=O)N[C@@H](CCCNC(=N)N)C(=O)N1CCC[C@H]1C(=O)N[C@H](C)C(N)=O [Example 65b, NAc-D2Nal^1 -D4ClPhe^2 -D3Pal^3 -Ser^4 -NMeTyr^5 -DLys(N-epsilon-DSer-3Furoyl)^6 -Leu^7 -Arg^8 -Pro^9 -DAla^10 NH2] (Ac-[d2Nal][dPhe(4-Cl)][d3Pal]S[NMeY][dK]([dS-X2])LRP[dA]-NH2) | 2.29 pM
7 | CC(=O)N[C@H](Cc1ccc2ccccc2c1)C(=O)N[C@H](Cc1ccc(Cl)cc1)C(=O)N[C@H](Cc1cccnc1)C(=O)N[C@@H](CO)C(=O)N(C)[C@@H](Cc1ccc(O)cc1)C(=O)N[C@H](CCCCNC(=O)CNC(=O)Cc1cccnc1)C(=O)N[C@@H](CC(C)C)C(=O)N[C@@H](CCCNC(=N)N)C(=O)N1CCC[C@H]1C(=O)N[C@H](C)C(N)=O [Example 65c, NAc-D2Nal^1 -D4ClPhe^2 -D3Pal^3 -Ser^4 -NMeTyr^5 -DLys(N-epsilon-Gly-3Pyridylacetyl)^6 -Leu^7 -Arg^8 -Pro^9 -DAla^10 NH2] (Ac-[d2Nal][dPhe(4-Cl)][d3Pal]S[NMeY][dK]([Gly-Acetyl(3-pyridyl)])LRP[dA]-NH2) | 28.8 pM
